Experiments:
[1] = test system: velvetleaf (Abutilon theophrasti); assay: Postemergence herbicidal activity; type: in vivo; conditions: Abutilon theophrasti, post-emergence, 336 h, post-emergent, 140 g ai/ha, after 14 days; read-out: % Control ABUTH
Protocol: (§1) Seeds or nutlets of the desired test plant species were planted in Sun Gro MetroMix® 306 planting mixture, which typically has a pH of 6.0 to 6.8 and an organic matter content of about 30 percent, in plastic pots with a surface area of 64 square centimeters. When required to ensure good germination and healthy plants, a fungicide treatment and/or other chemical or physical treatment was applied. The plants were grown for 7-21 days in a greenhouse with an approximate 15 hour photoperiod which was maintained at about 23-29° C. during the day and 22-28° C. during the night. Nutrients and water were added on a regular basis and supplemental lighting was provided with overhead metal halide 1000-Watt lamps as necessary. The plants were employed for testing when they reached the first or second true leaf stage. […] The concentrated stock solutions obtained were diluted with 20 mL of an aqueous mixture containing acetone, water, isopropyl alcohol, DMSO, Atplus 411F crop oil concentrate, and Triton® X-155 surfactant in a 48.5:39:10:1.5:1.0:0.02 v/v ratio to obtain spray solutions containing the highest application rates. […] Compound requirements are based upon a 12 mL application volume at a rate of 187 L/ha. Formulated compounds were applied to the plant material with an overhead Mandel track sprayer equipped with a […] nozzles calibrated to deliver 187 L/ha over an application area of 0.503 square meters at a spray height of 18 inches (43 cm) above the average plant canopy height. Control plants were sprayed in the same manner with the solvent blank. The treated plants and control plants were placed in a greenhouse as described above and watered by sub-irrigation to prevent wash-off of the test compounds. […] By applying the well-accepted probit analysis as described by J. Berkson in Journal of the American Statistical […], 48, 565 (1953) and by D.

[2] = test system: redroot pigweed (Amaranthus retroflexus); assay: Postemergence herbicidal activity; type: in vivo; conditions: Amaranthus retroflexus, post-emergence, 336 h, post-emergent, 140 g ai/ha, after 14 days; read-out: % Control AMARE
Protocol: as §1

[3] = test system: lambsquarter (Chenopodium album); assay: Postemergence herbicidal activity; type: in vivo; conditions: Chenopodium album, post-emergence, 336 h, post-emergent, 140 g ai/ha, after 14 days; read-out: % Control CHEAL
Protocol: as §1

Structure (SMILES)	pest or weed control at 140 g/ha [1] [%]	pest or weed control at 140 g/ha [2] [%]	pest or weed control at 140 g/ha [3] [%]	melting point
COC(=O)c1nc(-c2ccc(Cl)c(C3CC3)c2F)cc(N)c1Cl [Compound 81, 4-Amino-3-chloro-6-(4-chloro-3-cyclopropyl-2-fluorophenyl)pyridine-2-carboxylic acid, methyl ester]	100	100	95	135 to 136.5 °C
Cc1c(Cl)ccc(-c2cc(N)c(Cl)c(C(=O)O)n2)c1Cl [Compound 98, 4-Amino-3-chloro-6-(2,4-dichloro-3-methylphenyl)pyridine-2-carboxylic acid]	90	70	80	170 to 172 °C (dec.)
Nc1cc(-c2ccc(Cl)c(C(F)F)c2F)nc(C(=O)O)c1Cl [Compound 106, 4-Amino-3-chloro-6-(4-chloro-2-fluoro-3-difluoromethylphenyl)pyridine-2-carboxylic acid]	90	100	90	182 to 183 °C (dec.)
COc1c(C(F)(F)F)ccc(-c2cc(N)c(Cl)c(C(=O)O)n2)c1F [Compound 107, 4-Amino-3-chloro-6-(2-fluoro-3-methoxy-4-trifluoromethylphenyl)pyridine-2-carboxylic acid]	100	80	90	177 to 178 °C (dec.)
CN(C)c1c(Cl)ccc(-c2cc(N)c(Cl)c(C(=O)O)n2)c1Cl [Compound 117, 4-Amino-3-chloro-6-[2,4-dichloro-3-(dimethylamino)phenyl]pyridine-2-carboxylic acid]	100	100	100	177 to 178 °C
CNc1c(Cl)ccc(-c2cc(N)c(Cl)c(C(=O)O)n2)c1F [Compound 118, 4-Amino-3-chloro-6-[4-chloro-2-fluoro-3-(methylamino)phenyl]pyridine-2-carboxylic acid]	100	100	100	185 to 186 °C
COc1c(C)ccc(-c2cc(N)c(Cl)c(C(=O)O)n2)c1F [Compound 119, 4-Amino-3-chloro-6-(2-fluoro-3-methoxy-4-methylphenyl)pyridine-2-carboxylic acid]	100	100	95	178 to 179 °C
Nc1cc(-c2ccc(Cl)c(C(F)F)c2Cl)nc(C(=O)O)c1Cl [Compound 126, 4-Amino-3-chloro-6-(2,4-dichloro-3-difluoromethylphenyl)pyridine-2-carboxylic acid]	90	100	100	182 to 183 °C (dec.)
Nc1cc(-c2ccc(Cl)c(C(F)C(F)(F)F)c2F)nc(C(=O)O)c1Cl (centres unmarked) [Compound 129, 4-Amino-3-chloro-6-[4-chloro-2-fluoro-3-(1,2,2,2-tetrafluoroethyl)-phenyl)pyridine-2-carboxylic acid]	85	95	90	175 to 176 °C (dec.)
CCC(F)c1c(Cl)ccc(-c2cc(N)c(Cl)c(C(=O)OC)n2)c1F (centres unmarked) [Compound 130, 4-Amino-3-chloro-6-[4-chloro-2-fluoro-3-(1-fluoropropyl)phenyl]pyridine-2-carboxylic acid, methyl ester]	80	95	95	165 to 167 °C (dec.)
Nc1cc(-c2ccc(Cl)c(OC(F)F)c2F)nc(C(=O)O)c1Cl [Compound 134, 4-Amino-3-chloro-6-(4-chloro-3-difluoromethoxy-2-fluorophenyl)pyridine-2-carboxylic acid]	95	100	90	179 °C (dec.)
